Reference: article PMC6943434, “Novel Homo-Bivalent and Polyvalent Compounds Based on Ligustrazine and Heterocyclic Ring as Anticancer Agents” (Molecules, 2019)
Like-named read-outs stand apart in the source and are kept apart here.

Columns and labels:
[1] = system: FaDu (head and neck squamous carcinoma cell line); assay: MTT cell viability assay, FaDu; assay type: cell-based, human; conditions: for IC50: 48 h, MTT; for SI: selectivity index: SI = IC50 (MCF 10A)/IC50 (FaDu)
Method: (§1) The tested cells were obtained from Shanghai Institute of Biochemistry and Cell Biology of the Chinese Academy of Sciences (Shanghai, China). HeLa and Hep G2 cell lines were cultured in Dulbecco’s modified Eagle’s medium (DMEM; gibco, Life Technologies, Carlsbad, CA, USA) supplemented with 10% fetal bovine serum (FBS; Biological Industries), 100 U/mL penicillin-streptomycin (PS; gibco, Life Technologies, Carlsbad, CA, USA). MCF-7 and A549 cell lines were maintained in RPMI-1640 media (gibco, Life Technologies, Carlsbad, CA, USA) supplemented with 10% FBS and 100 U/mL PS. FaDu cell lines were cultured in minimum essential medium (MEM; Gibco, Life Technologies, Carlsbad, CA, USA) supplemented with 10% FBS and 100 U/mL PS. MCF 10A cell lines were maintained in Mammary MEGM kit (Lonza/Clonetics) supplemented with 100 ng/mL cholera toxin (Sigma, Shanghai, China). Cell lines were grown at 37 °C in a humidified atmosphere of 5% CO2.
(§2) The growth-inhibitory effects against HeLa, Hep G2, MCF-7, FaDu, and A549 cancer cells and normal cell lines MCF 10A were determined by MTT assay. […] Cells were seeded in 96 well plates at a density of 1 × 10^4 cells per well and incubated for 24 h at 37 °C in a humidified atmosphere of 5% CO2. The cells were then incubated with various concentrations of drugs for 48 h in a 5% CO2 incubator at 37 °C. After treatment with 1 mg/mL 3-(4,5-dimethylthiazol-2-yl)-2,5-diphenyltetrazolium bromide (MTT) solution for 4 h, the formazan crystals were dissolved in 100 µL DMSO in each well. Plates were read on a microplate reader (Thermo Varioskan Flash 3001) at 490 nm. The experiment was performed in triplicate. The inhibitory concentration at 50% (IC50) was calculated based on concentration-inhibition relationships via regression using SPSS software (Version 17.0).

[2] = system: MCF 10A (normal mammary epithelial cell); assay: MTT cell viability assay, MCF 10A; assay type: cell-based; conditions: Homo sapiens, 48 h, normal cells, read-out: Antiproliferative Activity IC50 ± SEM, MCF 10A
[3] = system: A549 (epithelial cancer cell line); assay: MTT cell viability assay, A549; assay type: cell-based; conditions: Homo sapiens, 48 h, read-out: Antiproliferative Activity IC50 ± SEM, A549
Method: as §1, §2

[4] = system: Hep G2 (hepatocarcinoma cell line); assay: MTT cell viability assay, Hep G2; assay type: cell-based; conditions: Homo sapiens, HepG2, 48 h, read-out: Antiproliferative Activity IC50 ± SEM, Hep G2
Method: as §1, §2

[5] = system: HeLa (cervical cancer cell line); assay: MTT cell viability assay, HeLa; assay type: cell-based; conditions: Homo sapiens, 48 h, read-out: Antiproliferative Activity IC50 ± SEM, HeLa
Method: as §1, §2

[6] = system: MCF-7 (breast cancer cell line); assay: MTT cell viability assay, MCF-7; assay type: cell-based; conditions: Homo sapiens, MCF7, 48 h, read-out: Antiproliferative Activity IC50 ± SEM, MCF-7
Method: as §1, §2

[7] = Homo sapiens, FaDu, read-out: Antiproliferative Activity IC50 ± SEM, FaDu

| SMILES | IC50 [1, 7] | IC50 [2] | IC50 [3] | IC50 [4] | IC50 [5] | IC50 [6] | IC50 ([1]; Homo sapiens, FaDu, values in nM, read-out: IC50 in FaDu cells) | IC50 ([1]; read-out: Antiproliferative Activity IC50 ± SEM, FaDu) | SI: selectivity index [1] |
| --- | --- | --- | --- | --- | --- | --- | --- | --- | --- |
| Cc1nc(C)c(CN(CCN(Cc2nc(C)c(C)nc2C)Cc2nc(C)c(C)nc2C)Cc2nc(C)c(C)nc2C)nc1C [Compound 6a, N^1,N^1,N^2,N^2-Tetrakis((3,5,6-Trimethylpyrazin-2-yl)Methyl)Ethane-1,2-Diamine] | > 100000 nM | 90.3 ± 3.41 µM | > 100 µM | > 100 µM | > 100 µM | > 100 µM |  |  |  |
| O=C(/C=C/c1ccccc1)OCCCCCCCCCCOC(=O)/C=C/c1ccccc1 [Compound 9h, Decane-1,10-Diyl (2E,2′E)-Bis(3-Phenylacrylate)] | > 20000 nM | > 20 µM | > 20 µM | > 20 µM | > 20 µM | > 20 µM |  |  |  |
| O=C(NCCCCCCCCCCNC(=O)c1cc2ccccc2o1)c1cc2ccccc2o1 [Compound 21e, N,N′-(Decane-1,10-Diyl)Bis(Benzofuran-2-Carboxamide)] | < 1000 nM | > 20 µM | > 20 µM | > 20 µM | > 20 µM | > 20 µM | 697 nM | 665 ± 28 nM | >30.08 |
| O=C(/C=C/c1ccccc1)OCCOCCOCCOCCOC(=O)/C=C/c1ccccc1 [Compound 9m, ((Oxybis(Ethane-2,1-Diyl))Bis(Oxy))Bis(Ethane-2,1-Diyl) (2E,2′E)-bis(3-Phenylacrylate)] | > 20000 nM | > 20 µM | > 20 µM | > 20 µM | > 20 µM | > 20 µM |  |  |  |
| Cc1nc(C)c(CN(CCCCCCN(Cc2nc(C)c(C)nc2C)Cc2nc(C)c(C)nc2C)Cc2nc(C)c(C)nc2C)nc1C [Compound 6d, N^1,N^1,N^6,N^6-Tetrakis((3,5,6-Trimethylpyrazin-2-yl)Methyl)Hexane-1,6-Diamine] | > 100000 nM | > 100 µM | > 100 µM | > 100 µM | > 100 µM | > 100 µM |  |  |  |
| Cc1nc(C)c(C(=O)NCCCCCCCCNC(=O)c2nc(C)c(C)nc2C)nc1C [Compound 8d, N,N′-(Octane-1,8-Diyl)Bis(3,5,6-Trimethylpyrazine-2-Carboxamide)] | 110 ± 30 nM | 2.69 ± 0.46 µM | 6.35 ± 0.05 µM | > 20 µM | 3.31 ± 0.14 µM | 0.48 ± 0.003 µM |  |  | 24.45 |
| Cc1nc(C)c(C(=O)NCCCCCCNC(=O)c2nc(C)c(C)nc2C)nc1C [Compound 8c, N,N′-(Hexane-1,6-Diyl)Bis(3,5,6-Trimethylpyrazine-2-Carboxamide)] | 80400 ± 1360 nM | 46.6 ± 0.65 µM | > 100 µM | > 100 µM | > 100 µM | > 100 µM |  |  |  |
| O=C(/C=C/c1ccccc1)NCCCCCCCCCCNC(=O)/C=C/c1ccccc1 [Compound 9e, (2E,2′E)-N,N′-(Decane-1,10-Diyl)Bis(3-Phenylacrylamide)] |  | > 100 µM | 11.3 ± 0.81 µM | > 100 µM | > 100 µM | > 100 µM |  |  | >1851.85 |
| COc1cc(/C=C/C(=O)NCCCCCCCCCCNC(=O)/C=C/c2cc(OC)c(OC)c(OC)c2)cc(OC)c1OC [Compound 29e, (2E,2′E)-N,N′-(Decane-1,10-Diyl)Bis(3-(3,4,5-Trimethoxyphenyl)Acrylamide)] | 5070 ± 461 nM | > 20 µM | > 20 µM | > 20 µM | > 20 µM | > 20 µM |  |  | >3.95 |
| O=C(/C=C/c1ccccc1)OCCOCCOCCOC(=O)/C=C/c1ccccc1 [Compound 9l, (Ethane-1,2-Diylbis(Oxy))Bis(Ethane-2,1-Diyl) (2E,2′E)-Bis(3-Phenylacrylate)] | > 20000 nM | > 20 µM | > 20 µM | > 20 µM | > 20 µM | > 20 µM |  |  |  |
| Cc1nc(C)c(CN2CCN(Cc3nc(C)c(C)nc3C)CC2)nc1C [Compound 6h, 1,4-Bis((3,5,6-Trimethylpyrazin-2-yl)Methyl)Piperazine] | > 100000 nM | > 100 µM | > 100 µM | > 100 µM | > 100 µM | > 100 µM |  |  |  |
| O=C(NCCCCCCCCCCNC(=O)c1ccc2nc[nH]c2c1)c1ccc2nc[nH]c2c1 [Compound 19e, N,N′-(Decane-1,10-Diyl)Bis(1H-Benzo[d]Imidazole-6-Carboxamide)] | 8740 ± 440 nM | > 20 µM | > 20 µM | > 20 µM | > 20 µM | > 20 µM |  |  | >2.29 |
| O=C(NCCCCCCCCCCNC(=O)c1ccc2ccccc2c1)c1ccc2ccccc2c1 [Compound 12e, N,N′-(Decane-1,10-Diyl)Bis(2-Naphthamide)] | 1330 ± 70 nM | > 100 µM | 8.77 ± 0.47 µM | > 100 µM | > 100 µM | > 100 µM |  |  | >75.19 |
| O=C(NCCCCCCCCCCNC(=O)c1cnccn1)c1cnccn1 [Compound 16e, N,N′-(Decane-1,10-Diyl)Bis(Pyrazine-2-Carboxamide)] | 88100 ± 1370 nM | > 100 µM | > 100 µM | > 100 µM | > 100 µM | > 100 µM |  |  |  |
| Cc1nc(C)c(CN(CCCCCCCCN(Cc2nc(C)c(C)nc2C)Cc2nc(C)c(C)nc2C)Cc2nc(C)c(C)nc2C)nc1C [Compound 6e, N^1,N^1,N^8,N^8-Tetrakis((3,5,6-Trimethylpyrazin-2-yl)Methyl)Octane-1,8-Diamine] | 49500 ± 1610 nM | 85.4 ± 2.28 µM | > 100 µM | 50.8 ± 1.35 µM | 62.7 ± 4.19 µM | 66.36 ± 0.05 µM |  |  | 1.73 |
| O=C(NCCCCCCCCCCNC(=O)c1cnc2ccccc2c1)c1cnc2ccccc2c1 [Compound 17e, N,N′-(Decane-1,10-Diyl)Bis(Quinoline-3-Carboxamide)] |  | > 20 µM | > 20 µM | > 20 µM | > 20 µM | > 20 µM |  |  | >84.75 |
| Nc1ccccc1C(=O)NCCCCCCCCCCNC(=O)c1ccccc1N [Compound 30e, N,N′-(Decane-1,10-Diyl)Bis(2-Aminobenzamide)] | > 20000 nM | > 20 µM | > 20 µM | > 20 µM | > 20 µM | > 20 µM |  |  |  |
| O=C(/C=C/c1ccccc1)OCCCCCCCCCCCCOC(=O)/C=C/c1ccccc1 [Compound 9i, Dodecane-1,12-Diyl (2E,2′E)-Bis(3-Phenylacrylate)] | > 20000 nM | > 20 µM | > 20 µM | > 20 µM | > 20 µM | > 20 µM |  |  |  |
| O=C(NCCCCCCCCCCNC(=O)c1cc2ccccc2oc1=O)c1cc2ccccc2oc1=O [Compound 20e, N,N′-(Decane-1,10-Diyl)Bis(2-Oxo-2H-Chromene-3-Carboxamide)] | > 20000 nM | > 20 µM | > 20 µM | > 20 µM | > 20 µM | > 20 µM |  |  |  |
| COc1ccc(/C=C/C(=O)NCCCCCCCCCCNC(=O)/C=C/c2ccc(OC)c(OC)c2)cc1OC [Compound 27e, (2E,2′E)-N,N′-(Decane-1,10-Diyl)Bis(3-(3,4-Dimethoxyphenyl)Acrylamide)] | 4620 ± 539 nM | > 20 µM | > 20 µM | > 20 µM | > 20 µM | > 20 µM |  |  | >4.33 |
| O=C(/C=C/c1ccccc1)OCCCCCCCCOC(=O)/C=C/c1ccccc1 [Compound 9g, Octane-1,8-Diyl (2E,2′E)-Bis(3-Phenylacrylate)] | > 20000 nM | > 20 µM | > 20 µM | > 20 µM | > 20 µM | > 20 µM |  |  |  |
| O=C(NCCCCCCCCCCNC(=O)c1ccncc1)c1ccncc1 [Compound 13e, N,N′-(Decane-1,10-Diyl)Diisonicotinamide] | 48300 ± 3170 nM | > 100 µM | > 100 µM | > 100 µM | > 100 µM | > 100 µM |  |  | >2.07 |
